Data reported in patent US20160256535A1, “HEXAPEPTIDE AND USES THEREOF” (priority 2013, published 2016).
Residues, ends and D or L forms follow the SMILES beside them.

B1: rMnSOd: recombinant form of LSA-type-MnSOD bearing the 24 amino acid leader peptide at the N-terminus (protein, UniProt P04179 1-222, looked up)
chain: MLSRAVCGTSRQLAPVLGYLGSRQKHSLPDLPYDYGALEPHINAQIMQLHHSKHHAAYVNNLNVTEEKYQEALAKGDVTAQIALQPALKFNGGGHINHSIFWTNLSPNGGGEPKGELLEAIKRDFGSFDKFKEKLTAASVGVQGSGWGWLGFNKERGHLQIAACPNQDPLQGTTGLIPLLGIDVWEHAYYLQYKNVRPDYLKAIWNVINWENVTERYMACKK
modifications: full-length

Legend:
A2780 = test: Determination of platinum in culture medium and cell pellet by atomic absorption spectrophotometry; type: cell-based, human; conditions: 92 μM, 3 hours
Procedure: (§1) The cells to be examined, after the incubation period, were harvested, washed twice in buffered solution (PBS) and treated with 50 μl of 35% HNO3 for 16 hours. The platinum (Pt) contained in the culture medium or in the cell pellet was determined by spectrophotometer at atomic absorption (Analyst 800, Perkin-Elmer, Norwalk, Conn.) using the following criteria: temperature of pretreatment, 1300° C., temperature of atomizing 2200° C. 0.015 μg of palladium were used (palladium has been used for the modification of the matrix) and 0.01 μg of Mg (NO3)2 as a modifier of the matrix. The determinations were performed using a graphite furnace equipped with the correction system of the Zeeman effect. For the determination of the metal, tubes of pyrolytic graphite coated with THGA were used (Perkin-Elmer) with an integrated “vov-type platform” system. A standard solution of platinum in 2.5% HNO3 (Spectrascan) was used as a mother solution for the construction of a calibration curve with three points of reference. Each determination was performed independently, in triplicate (11).

A375 = test: as above; type: cell-based, human; conditions: 92 μM, 3 hours
Procedure: as §1

DU145 = test: as above; type: cell-based, human; conditions: 92 μM, 3 hours
Procedure: as §1

HUH-7 = test: as above; type: cell-based, human; conditions: 92 μM, 3 hours
Procedure: as §1

MCF-7 = test: as above; type: cell-based, human; conditions: 92 μM, 3 hours
Procedure: as §1

[1] = test system: Human breast carcinoma MCF-7; test: Cytotoxicity by LDH release (Cytotox 96); type: cell-based; conditions: % of total LDH; for LDH release: 1.5 μM, 24 hr or 48 hr
Procedure: (§2) The leader peptide of 24 aa. […] The release of lactate dehydrogenase (LDH) was then measured quantitatively in the supernatant of the culture medium of the cells after 24 hr of incubation, using the Cytotox 96 non riadioactive cytotoxic assay kit in compliance with the technical indications provided by Promega. The experiments were performed in triplicate in an independent manner, using different preparations. (Table III)
(§3) After the incubation the amount of lactate dehydrogenase (LDH) released from cells into the supernatant was measured. This quantity was expressed as a percentage of the total LDH (released by cells in which cell lysis had been induced using a detergent). Approximately 3% of LDH was found in the culture medium of not treated cells.

A-2780 = test: Cytotoxicity by LDH release (Cytotox 96); type: cell-based, human; conditions: % of total LDH; for LDH release: 1.5 μM, 24 hr or 48 hr
Procedure: as §2, §3

HUT-7 Hepatocarcinoma = test: Cytotoxicity by LDH release (Cytotox 96); type: cell-based, human; parameters: LDH μelease: dose or concentration left out as unconfirmed; conditions: % of total LDH; for LDH release: 1.5 μM, 24 hr or 48 hr
Procedure: as §2, §3

MRC-5 = test: Cytotoxicity by LDH release (Cytotox 96); type: cell-based, human; parameters: LDH μelease: dose or concentration left out as unconfirmed; conditions: % of total LDH; for LDH release: 1.5 μM, 24 hr or 48 hr
Procedure: as §2, §3

PaTu Ca pancreatic = test: Cytotoxicity by LDH release (Cytotox 96); type: cell-based, human; parameters: LDH μelease: dose or concentration left out as unconfirmed; conditions: % of total LDH; for LDH release: 1.5 μM, 24 hr or 48 hr
Procedure: as §2, §3

[2] = test system: tumor cells of human origin; test: Immuno-histochemical assessment of internalization; type: cell-based; conditions: text summary of Table II
Procedure: (§4) Subsequently, a cytospin was used to obtain a smear of cells on slides. The cells were then placed in Zamboni solution (4% paraformaldehyde, 15% picric acid) for 60 min and then washed with a solution of 1×PBS and incubated for 5 min with 3% hydrogen peroxide to suppress the action of endogenous peroxidase. The immuno-coloring was performed using the Dako LSA+System HRP kit (DAKO, CA, USA). The incubation lasted 30 minutes with primary antibody anti-peptide leader of 24 aa (1:200), produced in rabbits. This phase was followed by sequential method that requires a 30-min incubation with biotinylated antibody and peroxidase-labeled streptavidin. To complete the reaction of differentiation, a substrate-chromogen solution was engaged. Cell smears were colored with hematoxylin.
(§5) A positive reaction is represented by a brownish coloration. A blue coloration indicates negativity.
The immunocytochemical analysis was performed using a polyclonal antibody able to recognize the amino acid sequence of the peptide leader of rMnSOD (7), ie of 24 aa. among which there are also those that form the hexapeptide.
After incubation with these molecules, the cells were washed and treated with the polyclonal antibody for three hours at rt, and then the cells were washed with a solution of PBS [17, 18]. In control cells (not treated and those treated with the antibody alone), the reaction is negative. […]

[3] = Cytotoxicity by LDH release, summary over the cell lines; type: cell-based; conditions: human
Human Normal Lymphocytes = test: Lymphocyte penetration, immunocytochemistry / immunofluorescence; type: cell-based; conditions: 3 hour incubation
Procedure: Human Normal Lymphocytes cells were collected from healthy donors and purified using Ficoll Hystopaque density gradient centrifugation. The cells were cultured at a density of 1×10^6 cells/mL in RPMI media supplemented with 1% Penstrep and 10% FBS in a humidified atmosphere containing 5% CO2 at 37° C.
(§6) A cytospin was used to smear cells onto slides. The smears were fixed in Zamboni solution (4% paraformaldehyde, 15% picric acid) for 60 minutes and then washed with 1×PBS and incubated for five minutes with 3% hydrogen peroxide to quench endogenous peroxidase activity. Immunostaining was performed using the DAKO LSA+System HRP kit. Rabbit anti-rMnSOD-Lp (1:200), was incubated on slides for 30 minutes, followed by incubation with the biotinylated secondary antibody for 30 minutes and peroxidase-labeled streptavidin for 30 minutes. To complete the reaction, a substrate-chromogen solution was used. The smears were counterstained with hematoxylin.

white blood cells = test: White blood cell penetration, immunocytochemistry at light microscopy; type: cell-based, human; conditions: healthy subject
Procedure: as §6, with “Lymphocytes were incubated for five hours in the presence of fluorescinated Hexapeptide 92 μM. A cytospin” for “A cytospin”

Jurkat cells = test: Jurkat cell penetration, immunofluorescence; type: cell-based, human; conditions: 92 μM, 3 h
Procedure: Jurkat cells (ATTC, UK) were seeded at density of 150000 cells/well in RPMI media supplemented with 1% Penstrep and 10% FBS in a humidified atmosphere containing 5% CO2 at 37°. The next day, the cells were incubated with 92 μM AVCGTG (SEQ ID NO. 1)-FITC for 3 h in multiwell 24. Subsequently, a cytospin was used to smear cells onto slides. The smears were fixed with 4% paraformaldehyde/PBS for 10 min and rinsed twice with 1×PBS containing 0.1% Triton to remove traces of fixative. Cell samples without AVCGTG (SEQ ID NO. 1)-FITC were used for the background control. After blocking solution with 5% NGS (Normal Goat Serum, VECTOR) 1×PBS+0,1% Triton X-100, was added for 30 minutes. After removing the blocking solution, cells were incubated with primary antibody hexapeptide, diluted 1:200 in blocking solution, overnight at 4° C. The following day, after washing with lx PBS and 0.1% Triton X-100 for 10 minutes, secondary antibody (ALEXA FLUO 488A, SANTACRUZ) diluted 1:400 with 1×PBS and 0.1% Triton X-100 for 2 h was added. The excess of antibody was removed with 3 washes with 1×PBS.
Nuclei were stained with DAPI (1 μg/mL). The slides were mounted and stored in the dark at 4° C. and then observed by fluorescence microscope ZEISS HB050 by using the software Axion Vision Re1.4.8.

cells = test: Ability of hexapeptide conjugated to fluorescein to enter cells (immunocytochemistry); type: cell-based; conditions: immunocytochemistry examination
From the text: The test results are positive and confirms the previous data.

[4] = test system: Human breast cancer MCF-7; test: Immuno-histochemical assessment of internalization (Ab anti-leader peptide 24 aa); type: cell-based; conditions: 3 hours, 92 μM, positive = brownish coloration
Procedure: as §4, with “The cells were then placed in Zamboni solution (4% paraformaldehyde, 15% picric acid) for 60 min and then washed with a solution of 1×PBS and incubated for 5 min with 3% hydrogen peroxide to suppress the action of endogenous peroxidase.” left out
as §5
(§7) After incubation with these molecules, the cells were washed and treated with the polyclonal antibody for three hours at rt, and then the cells were washed with a solution of PBS [17, 18].

A-2780 Ovarian Ca = test: as above; type: cell-based, human; conditions: 3 hours, 92 μM, positive = brownish coloration
Procedure: as §4, with “The cells were then placed in Zamboni solution (4% paraformaldehyde, 15% picric acid) for 60 min and then washed with a solution of 1×PBS and incubated for 5 min with 3% hydrogen peroxide to suppress the action of endogenous peroxidase.” left out
as §5, §7

A-375 Melanoma = test: as above; type: cell-based, human; conditions: 3 hours, 92 μM, positive = brownish coloration
Procedure: as §4, with “The cells were then placed in Zamboni solution (4% paraformaldehyde, 15% picric acid) for 60 min and then washed with a solution of 1×PBS and incubated for 5 min with 3% hydrogen peroxide to suppress the action of endogenous peroxidase.” left out
as §5, §7

[5] = test system: DU 145 Renal Cell Carcinoma; test: as above; type: cell-based, human; conditions: 3 hours, 92 μM, positive = brownish coloration
Procedure: as §4, with “The cells were then placed in Zamboni solution (4% paraformaldehyde, 15% picric acid) for 60 min and then washed with a solution of 1×PBS and incubated for 5 min with 3% hydrogen peroxide to suppress the action of endogenous peroxidase.” left out
as §5, §7

HUH HCC = test: as above; type: cell-based, human; conditions: 3 hours, 92 μM, positive = brownish coloration
Procedure: as §4, with “The cells were then placed in Zamboni solution (4% paraformaldehyde, 15% picric acid) for 60 min and then washed with a solution of 1×PBS and incubated for 5 min with 3% hydrogen peroxide to suppress the action of endogenous peroxidase.” left out
as §5, §7

Molecule	Cellular uptake of Pt (A2780) [%]	Pt cell pellet (A2780) [µg/L]	Cellular uptake of Pt (A375) [%]	Pt cell pellet (A375) [µg/L]	Cellular uptake of Pt (DU145) [%]	Pt cell pellet (DU145) [µg/L]	Cellular uptake of Pt (HUH-7) [%]	Pt cell pellet (HUH-7) [µg/L]	Cellular uptake of Pt (MCF-7) [%]	Pt cell pellet (MCF-7) [µg/L]	LDH release [1] [%]	LDH release (A-2780) [%]	LDH release (HUT-7 Hepatocarcinoma) [%]	LDH release (MRC-5) [%]	LDH release (PaTu Ca pancreatic) [%]	reaction with polyclonal antibody against leader peptide of 24 aa [2]	internalization, reaction with Ab anti-peptide (24 aa) [4]	internalization, reaction with Ab anti-peptide (24 aa) (A-2780 Ovarian Ca)	internalization, reaction with Ab anti-peptide (24 aa) (A-375 Melanoma)	internalization, reaction with Ab anti-peptide (24 aa) [5]	also measured
N.N.[Cl][Pt][Cl] [CC, cisplatin, reference compound]	0.75	163	1.5	399.9	0.9	167.3	1.2	242.9	2.6	760	48	36	32	37	25	–	–	–	–	–	–
CC(C)[C@H](NC(=O)[C@H](C)N)C(=O)N[C@@H](CS)C(=O)NCC(=O)N[C@H](C(=O)NCC(=O)O)[C@@H](C)O [Hexapeptide, AVCGTG] (H-AVCGTG-OH; N-terminus assumed)	–	–	–	–	–	–	–	–	–	–	–	–	–	–	–	positive	–	–	–	–	LDH μelease ([1]; 1.5 mM): 5%; LDH μelease (A-2780; 1.5 mM): 5%; LDH μelease (HUT-7 Hepatocarcinoma): 4%; LDH μelease (MRC-5; not treated cells): 2%; LDH μelease (PaTu Ca pancreatic; not treated cells): 3%; mortality at 24 hr, 1.5 μM [3]: 2 to 5%; internalization in lymphocytes (Human Normal Lymphocytes): cytoplasmic internalization; penetration into white blood cells (white blood cells): positive; penetration into Jurkat cells (Jurkat cells): cytoplasmic internalization
ACTGVG [reference compound]	–	–	–	–	–	–	–	–	–	–	–	–	–	–	–	–	–	–	–	–	penetration into the cells (cells): does not penetrate into the cells
Lp-CC (AVCGTG)	5.9	144	15.5	372	13.8	342.8	5.2	118.7	4.2	97	77	85	69	40	60	–	positive	positive	positive	positive	internalization, reaction with Ab anti-peptide (24 aa) (HUH HCC): positive
B1	–	–	–	–	–	–	–	–	–	–	–	–	–	–	–	positive	positive	positive	positive	positive	internalization, reaction with Ab anti-peptide (24 aa) (HUH HCC): positive
